The target in this assay is CDK2/Cyclin E1 (Homo sapiens (Human), UniProt P24941). The assay can be described thus: CDK2/Cyclin E1 HTRF enzyme activity assay. To be noted: 1 mM ATP. The assay is classed as biochemical. The method, then: Assays are conducted in white 384-well polystyrene plates in a final reaction volume of 8 μL. […] HTRF signals are read after 1 hour at room temperature on a PHERAstar FS plate reader (BMG Labtech). Data is analyzed with IDBS XLFit and GraphPad Prism 5.0 software using a three or four parameter dose response curve to determine IC50 for each compound.
What is called IC50 is the concentration that inhibits the measured activity by half. A lower IC50 goes with greater potency. Regarding `Cc1nc(CN2CCN(C(C)C)CC2)ccc1-n1cc(-c2nc(NC3CCN(S(=O)(=O)c4cn(C)cn4)CC3)ncc2C(F)(F)F)cn1` [Example 254, 4-(1-(6-((4-Isopropylpiperazin-1-yl)methyl)-2-methylpyridin-3-yl)-1H-pyrazol-4-yl)-N-(1-((1-methyl-1H-imidazol-4-yl)sulfonyl)piperidin-4-yl)-5-(trifluoromethyl)pyrimidin-2-amine], the half-inhibitory concentration (IC50) was under 50 nM.
Next, `CN1CCC(n2ncc(-c3nc(NC4CCN(S(C)(=O)=O)CC4)ncc3C(F)(F)F)c2C(F)(F)F)CC1` [Example 18, 4-(1-(1-Methylpiperidin-4-yl)-5-(trifluoromethyl)-1H-pyrazol-4-yl)-N-(1-(methylsulfonyl)piperidin-4-yl)-5-(trifluoromethyl)pyrimidin-2-amine]: 50 to 200 nM.
Next, `CCn1cnc(S(=O)(=O)N2CCC(Nc3ncc(C(F)(F)F)c(-c4cnn(C5CCOCC5)c4)n3)CC2)c1` [Example 24, N-(1-((1-Ethyl-1H-imidazol-4-yl)sulfonyl)piperidin-4-yl)-4-(1-(tetrahydro-2H-pyran-4-yl)-1H-pyrazol-4-yl)-5-(trifluoromethyl)pyrimidin-2-amine]: under 50 nM; `CC(C)(O)Cn1cc(-c2nc(NC3CCN(S(C)(=O)=O)CC3)ncc2C(F)(F)F)cn1` [Example 52, 2-Methyl-1-(4-(2-((1-(methylsulfonyl)piperidin-4-yl)amino)-5-(trifluoromethyl)pyrimidin-4-yl)-1H-pyrazol-1-yl)propan-2-ol]: under 50 nM.
As for `[2H]C([2H])([2H])NCc1ccc(-n2cc(-c3nc(N[C@H]4CCN(S(=O)(=O)c5cn(C)cn5)C[C@H]4C)ncc3C#N)cn2)c(Cl)c1` [Example 148, 4-(1-(2-Chloro-4-(((methyl-d3)amino)methyl)phenyl)-1H-pyrazol-4-yl)-2-(((3R,4S)-3-methyl-1-((1-methyl-1H-imidazol-4-yl)sulfonyl)piperidin-4-yl)amino)pyrimidine-5-carbonitrile], the figure is under 50 nM.
As for `[2H]C([2H])([2H])NCc1ccc(-n2cc(-c3nc(NC4CCN(S(=O)(=O)c5cnn(C)c5)CC4)ncc3C#N)cn2)c(C)n1` [Example 149, 2-((1-((1-Methyl-1H-pyrazol-4-yl)sulfonyl)piperidin-4-yl)amino)-4-(1-(2-methyl-6-(((methyl-d3)amino)methyl)pyridin-3-yl)-1H-pyrazol-4-yl)pyrimidine-5-carbonitrile], the half-inhibitory concentration (IC50) is under 50 nM.
As for `[2H]C([2H])([2H])NCc1ccc(-n2cc(-c3nc(N[C@H]4CCN(S(=O)(=O)C5CC5)C[C@H]4F)ncc3C#N)cn2)c(Cl)c1` [Example 145, 4-(1-(2-Chloro-4-(((methyl-d3)amino)methyl)phenyl)-1H-pyrazol-4-yl)-2-(((3R,4S)-1-(cyclopropylsulfonyl)-3-fluoropiperidin-4-yl)amino)pyrimidine-5-carbonitrile], the figure is under 50 nM.
Consider `CN1CCN(Cc2ccc(-n3cc(-c4nc(NC5CCN(S(=O)(=O)c6cn(C)cn6)CC5)ncc4C#N)cn3)c(Cl)c2)CC1` [Example 261, 4-(1-(2-Chloro-4-((4-methylpiperazin-1-yl)methyl)phenyl)-1H-pyrazol-4-yl)-2-((1-((1-methyl-1H-imidazol-4-yl)sulfonyl)piperidin-4-yl)amino)pyrimidine-5-carbonitrile], for which the IC50 is under 50 nM.
`N#Cc1cccc(S(=O)(=O)N2CCC(Nc3ncc(C(F)(F)F)c(-c4cnn(C5CCOCC5)c4)n3)CC2)c1` [Example 7, 3-((4-((4-(1-(Tetrahydro-2H-pyran-4-yl)-1H-pyrazol-4-yl)-5-(trifluoromethyl)pyrimidin-2-yl)amino)piperidin-1-yl)sulfonyl)benzo nitrile]: the IC50 was under 50 nM.
Consider `CN(C)C1CCC(S(=O)(=O)N2CCC(Nc3ncc(C(F)(F)F)c(-c4cnn(CC(C)(C)O)c4)n3)CC2)CC1` (single isomer, unassigned) [88 (peak 2), 1-(4-(2-((1-((4-(Dimethylamino)cyclohexyl)sulfonyl)piperidin-4-yl)amino)-5-(trifluoromethyl)pyrimidin-4-yl)-1H-pyrazol-1-yl)-2-methylpropan-2-ol], for which the 50% inhibitory concentration (IC50) is under 50 nM.
As for `CCn1cc(CNCc2ccc(-n3cc(-c4nc(NC5CCN(S(C)(=O)=O)CC5)ncc4C#N)cn3)c(Cl)c2)cn1` [Example 194, 4-(1-(2-Chloro-4-((((1-ethyl-1H-pyrazol-4-yl)methyl)amino)methyl)phenyl)-1H-pyrazol-4-yl)-2-((1-(methylsulfonyl)piperidin-4-yl)amino)pyrimidine-5-carbonitrile], the figure is under 50 nM; as for `Cc1nc(C(=O)N[C@]2(C)C[C@H](O)C2)ccc1-n1cc(-c2nc(NC3CCN(S(C)(=O)=O)CC3)ncc2C(F)(F)F)cn1` [Example 28, N-(cis-3-Hydroxy-1-methylcyclobutyl)-6-methyl-5-(4-(2-(1-(methylsulfonyl)piperidin-4-ylamino)-5-(trifluoromethyl)pyrimidin-4-yl)-1H-pyrazol-1-yl)picolinamide], under 50 nM.
For `Cc1nc(CNC(C)C)ccc1-n1cc(-c2nc(N[C@H]3CCN(S(=O)(=O)c4cn(C)cn4)C[C@H]3C)ncc2C(F)(F)F)cn1` [Example 276, 4-(1-(6-((Isopropylamino)methyl)-2-methylpyridin-3-yl)-1H-pyrazol-4-yl)-N-((3R,4S)-3-methyl-1-((1-methyl-1H-imidazol-4-yl)sulfonyl)piperidin-4-yl)-5-(trifluoromethyl)pyrimidin-2-amine], the concentration for half-maximal inhibition (IC50) is under 50 nM.
Next, `CNCc1ccc(-n2cc(-c3nc(NC4CCN(S(=O)(=O)c5cn(C)cn5)CC4)ncc3Cl)cn2)c(C)n1` [Example 266, 5-Chloro-N-(1-((1-methyl-1H-imidazol-4-yl)sulfonyl)piperidin-4-yl)-4-(1-(2-methyl-6-((methylamino)methyl)pyridin-3-yl)-1H-pyrazol-4-yl)pyrimidin-2-amine]: under 50 nM; `CS(=O)(=O)CCNCc1ccc(-n2cc(-c3nc(NC4CCN(S(C)(=O)=O)CC4)ncc3C#N)cn2)c(Cl)c1` [Example 200, 4-(1-(2-Chloro-4-(((2-(methylsulfonyl)ethyl)amino)methyl)phenyl)-1H-pyrazol-4-yl)-2-((1-(methylsulfonyl)piperidin-4-yl)amino)pyrimidine-5-carbonitrile]: under 50 nM.
Next, `COC[C@H]1CCN(CCCS(=O)(=O)N2CCC(Nc3ncc(C(F)(F)F)c(-c4cnn(CC(C)(C)O)c4)n3)CC2)C1` [Example 74, (S)-1-(4-(2-((1-((3-(3-(Methoxymethyl)pyrrolidin-1-yl)propyl)sulfonyl)piperidin-4-yl)amino)-5-(trifluoromethyl)pyrimidin-4-yl)-1H-pyrazol-1-yl)-2-methylpropan-2-ol]: under 50 nM.
As for `Cc1nn(C2CCN(C)CC2)cc1-c1ccnc(NC2CCN(S(C)(=O)=O)CC2)n1` [Example 16, 4-(3-Methyl-1-(1-methylpiperidin-4-yl)-1H-pyrazol-4-yl)-N-(1-(methylsulfonyl)piperidin-4-yl)pyrimidin-2-amine], the figure is 50 to 200 nM; as for `C[C@]1(O)C[C@H](NCc2ccc(-n3cc(-c4nc(NC5CCN(S(=O)(=O)C6CC6)CC5)ncc4C#N)cn3)c(Cl)c2)C1` [Example 286, 4-(1-(2-Chloro-4-((((1r,3r)-3-hydroxy-3-methylcyclobutyl)amino)methyl)phenyl)-1H-pyrazol-4-yl)-2-((1-(cyclopropylsulfonyl)piperidin-4-yl)amino)pyrimidine-5-carbonitrile], under 50 nM.
`[2H]C([2H])([2H])NCc1ccc(-n2cc(-c3nc(N[C@H]4CCN(S(=O)(=O)C5CC5)C[C@H]4C)ncc3C#N)cn2)c(Cl)c1` [Example 146, 4-(1-(2-Chloro-4-(((methyl-d3)amino)methyl)phenyl)-1H-pyrazol-4-yl)-2-(((3R,4S)-1-(cyclopropylsulfonyl)-3-methylpiperidin-4-yl)amino)pyrimidine-5-carbonitrile] gave an IC50 of under 50 nM.
The molecule `Cc1nc(CNC(C)(C)C(N)=O)ccc1-n1cc(-c2nc(NC3CCN(S(C)(=O)=O)CC3)ncc2C#N)cn1` [Example 264, 2-(((5-(4-(5-Cyano-2-((1-(methylsulfonyl)piperidin-4-yl)amino)pyrimidin-4-yl)-1H-pyrazol-1-yl)-6-methylpyridin-2-yl)methyl)amino)-2-methylpropanamide] gave an IC50 of under 50 nM.
Next, `CNCc1ccc(-n2cc(-c3nc(NC4CCN(S(=O)(=O)c5cn(C)cn5)CC4)ncc3C(F)(F)F)cn2)c(C)n1` [Example 268, N-(1-((1-Methyl-1H-imidazol-4-yl)sulfonyl)piperidin-4-yl)-4-(1-(2-methyl-6-((methylamino)methyl)pyridin-3-yl)-1H-pyrazol-4-yl)-5-(trifluoromethyl)pyrimidin-2-amine]: under 50 nM; `CCN1CCN(Cc2ccc(-n3cc(-c4nc(NC5CCN(S(=O)(=O)c6cn(C)cn6)CC5)ncc4Cl)cn3)c(C)c2)CC1` [Example 245, 5-Chloro-4-(1-(4-((4-ethylpiperazin-1-yl)methyl)-2-methylphenyl)-1H-pyrazol-4-yl)-N-(1-((1-methyl-1H-imidazol-4-yl)sulfonyl)piperidin-4-yl)pyrimidin-2-amine]: under 50 nM; `CCN1CCN(Cc2ccc(-n3cc(-c4nc(N[C@H]5CCN(S(=O)(=O)c6cn(C)cn6)C[C@H]5C)ncc4C(F)(F)F)cn3)c(C)n2)CC1` [Example 256, 4-(1-(6-((4-Ethylpiperazin-1-yl)methyl)-2-methylpyridin-3-yl)-1H-pyrazol-4-yl)-N-((3R,4S)-3-methyl-1-((1-methyl-1H-imidazol-4-yl)sulfonyl)piperidin-4-yl)-5-(trifluoromethyl)pyrimidin-2-amine]: under 50 nM.
Next, `CC(C)(O)Cn1cc(-c2nc(NC3CCN(S(=O)(=O)CCCCN4CCCCC4)CC3)ncc2C(F)(F)F)cn1` [Example 81, 2-Methyl-1-(4-(2-((1-((4-(piperidin-1-yl)butyl)sulfonyl)piperidin-4-yl)amino)-5-(trifluoromethyl)pyrimidin-4-yl)-1H-pyrazol-1-yl)propan-2-ol]: under 50 nM.

Source of the values: patent publication US11472791B2 (Incyte Corporation, priority 2019, dated 2022).
